# Results reported in patent publication US20120077804A1, “Small Molecule Inhibitors of RNA Silencing” (The Regents of the University of California, priority 2007, published 2012).
# What was measured:
# [1] = test system: RNAi-mediated innate immunity against virus infection in cultured Drosophila cells; test: Cell-based high throughput screen, GFP expression in R1gfp cells after induction of FHV replication
# Text: A cell-based high throughput screening protocol for the identification of chemical inhibitors of the RNAi-mediated innate immunity against virus infection in cultured Drosophila cells has been established. The system is based on Flock house virus (FHV), an animal Nodavirus that contains a bipartite RNA genome. FHV RNA2 encodes the single virion structural protein, whereas FHV RNA1 encodes the viral RNA-dependent RNA polymerase (RdRP) and B2, a viral suppressor of RNAi (VSR) expressed after RNA1 replication from its own mRNA, RNA3. In the absence of RNA2, RNA1 replicates autonomously, accumulates to high levels, and produces abundant RNA3 in Drosophila cells. […] Similarly, green fluorescence is not detectable in wild type Drosophila cells transfected with pR1gfp, which encodes a recombinant RNA1 in which the viral B2 gene is replaced with green fluorescent protein (GFP) gene. A stable Drosophila Schneider 2 cell line has been established, and carries pR1gfp, called line R1gfp. R1gfp cells were seeded in 96-well plates and incubated overnight with chemicals from ChemBridge Diverset Library before FHV replication was induced. Expression of GFP was screened in R1gfp cells two days following the induction of FHV replication (see, Li et al., Proc Natl Acad Sci USA 2004, 101(5), 1350-5).
# [2] = test system: RNAi induced by synthetic double-stranded RNA (dsRNA); test: Northern blot of Cyclin A mRNA in S2 cells, RNAi induced by synthetic dsRNA (dsCycA); format: cell-based, Drosophila; conditions: for Degradation of cyclin A mRNA targeted by dsCycA: dsCycA plus 30 μM compound
# Text: FIG. 2 illustrates the northern blot detection of Cyclin A mRNA in S2 cells.
# Degradation of cyclin A mRNA occurred in S2 cells transfected with a dsRNA specific to cyclin A (dsCycA) (see, FIG. 2, lanes 1-2), but not in cells treated with a GFP-specific dsRNA (dsGFP) (see, FIG. 2, lane 8). […] Similar inhibition of cyclin A RNAi was also observed in cells co-transfected with a dsRNA targeting mRNA of Drosophila Ago2 (see, FIG. 2, lane 9), which is essential for RNAi in Drosophila.
smiles,measurement,setting,value
"COc1ccc(CN2CCN(S(=O)(=O)c3ccc(C)cc3)CC2)cc1OCc1ccccc1 [Rin2, 1-[3-(benzyloxy)-4-methoxybenzyl]-4-[(4-methylphenyl)sulfony]piperazine]",Inhibition of RNAi-mediated viral immunity (detection of green fluorescence),[1],inhibit the RNAi-mediated viral immunity
same,Inhibition of RNAi induced by synthetic double-stranded RNA (dsRNA),[2],active inhibitors
same,Degradation of cyclin A mRNA targeted by dsCycA,[2],partially inhibited
"CCN(CC)c1ccc(/C=C2/C(=O)NN(c3ccc(C)c(Cl)c3)C2=O)c(O)c1 [Rin3, 1-(3-chloro-4-methylphenyl)-4-[4-(diethylamino)-2-hydroxybenzylidene]-3,5-pyrazolidinedione]",Inhibition of RNAi-mediated viral immunity (detection of green fluorescence),[1],inhibit the RNAi-mediated viral immunity
same,Inhibition of RNAi induced by synthetic double-stranded RNA (dsRNA),[2],active inhibitors
same,Degradation of cyclin A mRNA targeted by dsCycA,[2],partially inhibited
